Assay results reported in patent publication US20260297042A1, “BIARYLAMIDE DERIVATIVES AND THEIR USE AS PKMYT1 INHIBITORS” (CANCER RESEARCH TECHNOLOGY LIMITED, priority 2023, published 2026).

Legend:
[1] = target: T1, WEE1 (Homo sapiens, UniProt P30291); assay: Selectivity versus WEE1 assay (ADP-Glo enzymatic assay); type: biochemical; conditions: for IC50: WEE1 15 nM, ADP-Glo, banded values; for PKMYT1 vs. WEE1 selectivity: fold difference in selectivity for PKMYT1 over WEE1, banded
T1 construct: purchased Thermo Fisher PR7373A
T1 sequence (P30291 whole entry): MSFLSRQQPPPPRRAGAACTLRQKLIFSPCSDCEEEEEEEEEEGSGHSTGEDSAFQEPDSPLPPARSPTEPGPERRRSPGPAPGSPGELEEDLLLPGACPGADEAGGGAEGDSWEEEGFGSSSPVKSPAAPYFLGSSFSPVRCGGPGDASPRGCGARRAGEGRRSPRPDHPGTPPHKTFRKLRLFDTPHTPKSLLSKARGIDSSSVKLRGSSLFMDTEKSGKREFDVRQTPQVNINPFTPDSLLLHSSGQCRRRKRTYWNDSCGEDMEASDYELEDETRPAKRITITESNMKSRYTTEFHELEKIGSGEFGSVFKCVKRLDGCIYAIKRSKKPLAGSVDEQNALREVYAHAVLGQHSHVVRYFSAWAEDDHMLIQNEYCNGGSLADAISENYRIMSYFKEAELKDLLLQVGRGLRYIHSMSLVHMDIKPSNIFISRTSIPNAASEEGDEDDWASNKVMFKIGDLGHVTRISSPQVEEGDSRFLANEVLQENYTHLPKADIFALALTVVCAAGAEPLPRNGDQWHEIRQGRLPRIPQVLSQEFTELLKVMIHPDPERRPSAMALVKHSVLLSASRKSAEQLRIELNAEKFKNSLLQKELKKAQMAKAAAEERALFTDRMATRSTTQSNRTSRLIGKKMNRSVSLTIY
Method in brief: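 Kinase at 15 nM final in 50 mM HEPES pH 7.5, 10 mM MgCl2, 1 mM EGTA, 0.01% Brij-35, 1% DMSO was started with 30 µM ATP and run 60 min at 26° C. ADP formed was read by ADP-Glo luminescence; IC50 came from dose-response curves.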

[2] = tested on: OVCAR 3 cells; assay: Cancer cell line proliferation assay, ATP-based cell viability (Cell Titre Glow), OVCAR 3 (CCNE1-amplified); conditions: KYSE30 (normal CCNE1) GI50 vs. OVCAR 3 (CCNE1-amplified) GI50
Method in brief: (§1)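 Sensitivity to PKMYT1 inhibitors was measured by ATP-based luminescence (CellTiter-Glo) as the proliferation endpoint. GI50, the concentration giving 50% growth inhibition, was estimated from curve fits.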

[3] = tested on: KYSE-30 cells; assay: Cancer cell line proliferation assay, ATP-based cell viability (Cell Titre Glow), KYSE-30 (normal CCNE1); conditions: Homo sapiens, KYSE-30 cells (normal CCNE1), concentration that achieves 50% cell growth proliferation inhibition, read-out: KYSE30 Gl50
Method in brief: as §1

[4] = target: T2, Human PKMYT1 (Homo sapiens, UniProt Q99640); assay: PKMYT1 biochemical ADP-Glo enzymatic assay; conditions: PKMYT1 kinase domain 15 nM; ADP-Glo; banded values
T2 construct: Human PKMYT1 75-362 was cloned as a TEV cleavable 6xHis fusion; 6xHis (TEV cleavable) (cleaved yes); made in house; host or cells: bacterial cells
T2 sequence (Q99640 75-362): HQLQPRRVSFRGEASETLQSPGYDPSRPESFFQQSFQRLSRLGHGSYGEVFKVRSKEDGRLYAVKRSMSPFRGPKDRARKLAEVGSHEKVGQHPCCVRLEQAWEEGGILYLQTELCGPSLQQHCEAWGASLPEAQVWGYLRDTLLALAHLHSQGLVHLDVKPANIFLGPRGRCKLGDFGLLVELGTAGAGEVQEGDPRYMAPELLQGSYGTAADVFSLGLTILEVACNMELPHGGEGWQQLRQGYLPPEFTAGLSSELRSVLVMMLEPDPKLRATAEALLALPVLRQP
Method in brief: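 Intrinsic ATPase activity of E. coli-expressed, tag-cleaved human PKMYT1 kinase domain (75-362), 15 nM, with 500 µM ATP in HEPES pH 7.5/MgCl2/EGTA/Brij-35, 1% DMSO, 60 min at 26 °C. ADP formed was read by ADP-Glo Max luminescence; IC50 from 10-point, 3-fold dilution curves.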

[5] = target: T3, Cellular PKMYT1 Biomarker CDK1 pT14 (Homo sapiens, UniProt Q99640); assay: Inhibition of cellular PKMYT1 biomarker CDK1 pT14 in OVCAR 3 cells (immunoblot); type: cell-based; conditions: 20 hours incubation
T3 construct: read-out CDK1 phospho-T14 immunoblot
T3 sequence (Q99640 1-499): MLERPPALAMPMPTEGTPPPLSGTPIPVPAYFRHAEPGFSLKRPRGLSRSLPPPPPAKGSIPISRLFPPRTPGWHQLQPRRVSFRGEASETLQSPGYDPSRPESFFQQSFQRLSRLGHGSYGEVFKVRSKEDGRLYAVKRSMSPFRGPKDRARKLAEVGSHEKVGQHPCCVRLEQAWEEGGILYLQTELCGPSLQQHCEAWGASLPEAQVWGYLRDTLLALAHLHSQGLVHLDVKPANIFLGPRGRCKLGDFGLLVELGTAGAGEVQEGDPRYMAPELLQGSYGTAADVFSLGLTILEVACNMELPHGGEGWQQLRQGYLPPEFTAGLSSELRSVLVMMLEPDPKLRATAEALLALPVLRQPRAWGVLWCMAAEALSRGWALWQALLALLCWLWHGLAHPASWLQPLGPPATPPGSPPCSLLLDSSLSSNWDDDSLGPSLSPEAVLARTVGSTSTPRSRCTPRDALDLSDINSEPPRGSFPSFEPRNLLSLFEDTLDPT
Method in brief: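 Confluent OVCAR 3 cells treated with a compound concentration range for 20 h at 37 °C. Lysates analysed by automated capillary immunoblot for CDK1 phospho-T14, with vinculin, fluorescence detection; IC50 by regression.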

| SMILES | IC50 [1] | PKMYT1 vs. WEE1 selectivity [1] | Selectivity ratio KYSE30 Gl50 vs. OVCAR3 Gl50 [2] | GI50 [3] | IC50 [4] | IC50 [5] |
| --- | --- | --- | --- | --- | --- | --- |
| Cc1cn(CC(F)F)nc1Nc1ncc(C(=O)Nc2c(C)ccc(O)c2C)s1 [BAA-478, 2-((1-(2,2-difluoroethyl)-4-methyl-1H-pyrazol-3-yl)amino)-N-(3-hydroxy-2,6-dimethylphenyl)thiazole-5-carboxamide] | 1000 to 11000 nM | X (100-<1000 fold) | Y (>20 fold) | > 5000 nM | < 50 nM | < 100 nM |
| Cc1cn(C(C)C(=O)N2CCCC2)nc1Nc1ncc(C(=O)Nc2c(C)ccc(O)c2C)s1 (stereo not drawn) [BAA-488, N-(3-hydroxy-2,6-dimethylphenyl)-2-((4-methyl-1-(1-oxo-1-(pyrrolidin-1-yl)propan-2-yl)-1H-pyrazol-3-yl)amino)thiazole-5-carboxamide] | 1000 to 11000 nM | X (100-<1000 fold) | Y (>20 fold) | > 5000 nM | < 50 nM | < 100 nM |
| Cc1cn(CC(=O)N2CCCC2C(F)(F)F)nc1Nc1ncc(C(=O)Nc2c(C)ccc(O)c2C)s1 (stereo not drawn) [BAA-493, N-(3-hydroxy-2,6-dimethylphenyl)-2-((4-methyl-1-(2-oxo-2-(2-(trifluoromethyl)pyrrolidin-1-yl)ethyl)-1H-pyrazol-3-yl)amino)thiazole-5-carboxamide] | 1000 to 11000 nM | X (100-<1000 fold) | Y (>20 fold) | > 5000 nM | < 50 nM | < 100 nM |
| Cc1cn(CC(=O)N2CCC(C(F)(F)F)C2)nc1Nc1ncc(C(=O)Nc2c(C)ccc(O)c2C)s1 (stereo not drawn) [BAA-504, N-(3-hydroxy-2,6-dimethylphenyl)-2-((4-methyl-1-(2-oxo-2-(3-(trifluoromethyl)pyrrolidin-1-yl)ethyl)-1H-pyrazol-3-yl)amino)thiazole-5-carboxamide] | 1000 to 11000 nM | X (100-<1000 fold) | Y (>20 fold) | > 5000 nM | < 50 nM | 100 to 1000 nM |
| CCN(CC)C(=O)C(C)n1cc(C)c(Nc2ncc(C(=O)Nc3c(C)ccc(O)c3C)s2)n1 (stereo not drawn) [BAA-510, 2-((1-(1-(diethylamino)-1-oxopropan-2-yl)-4-methyl-1H-pyrazol-3-yl)amino)-N-(3-hydroxy-2,6-dimethylphenyl)thiazole-5-carboxamide] | 1000 to 11000 nM | X (100-<1000 fold) | Y (>20 fold) | > 5000 nM | < 50 nM | < 100 nM |
| Cc1cn(CC2CCOC2)nc1Nc1ncc(C(=O)Nc2c(C)ccc(O)c2C)s1 (stereo not drawn) [BAA-543] | 1000 to 11000 nM | W (10-<100 fold) | Y (>20 fold) | > 5000 nM | < 50 nM | < 100 nM |
| Cc1ccc(O)c(C)c1NC(=O)c1cnc(Nc2nn(CC(=O)N3CCCC3)cc2Cl)s1 [BAA-546, 2-((4-chloro-1-(2-oxo-2-(pyrrolidin-1-yl)ethyl)-1H-pyrazol-3-yl)amino)-N-(3-hydroxy-2,6-dimethylphenyl)thiazole-5-carboxamide] | 1000 to 11000 nM | X (100-<1000 fold) | Y (>20 fold) | > 5000 nM | < 50 nM | < 100 nM |
| CCN(CCOC)C(=O)Cn1cc(C)c(Nc2ncc(C(=O)Nc3c(C)ccc(O)c3C)s2)n1 [BAA-550, 2-((1-(2-(ethyl(2-methoxyethyl)amino)-2-oxoethyl)-4-methyl-1H-pyrazol-3-yl)amino)-N-(3-hydroxy-2,6-dimethylphenyl)thiazole-5-carboxamide] | 1000 to 11000 nM | X (100-<1000 fold) | Y (>20 fold) | > 5000 nM | < 50 nM | < 100 nM |
| CCN(C(=O)Cn1cc(C)c(Nc2ncc(C(=O)Nc3c(C)ccc(O)c3C)s2)n1)C1CC1 [BAA-551, 2-((1-(2-(cyclopropyl(ethyl)amino)-2-oxoethyl)-4-methyl-1H-pyrazol-3-yl)amino)-N-(3-hydroxy-2,6-dimethylphenyl)thiazole-5-carboxamide] | 1000 to 11000 nM | X (100-<1000 fold) | Y (>20 fold) | 500 to 5000 nM | < 50 nM | < 100 nM |
| Cc1cn(CC(=O)N(C)C2CC2)nc1Nc1ncc(C(=O)Nc2c(C)ccc(O)c2C)s1 [BAA-554, 2-((1-(2-(cyclopropyl(methyl)amino)-2-oxoethyl)-4-methyl-1H-pyrazol-3-yl)amino)-N-(3-hydroxy-2,6-dimethylphenyl)thiazole-5-carboxamide] | 1000 to 11000 nM | X (100-<1000 fold) | Y (>20 fold) | > 5000 nM | < 50 nM | < 100 nM |
| CCN(CC)C(=O)Cn1cc(Cl)c(Nc2ncc(C(=O)Nc3c(C)ccc(O)c3C)s2)n1 [BAA-560, 2-((4-chloro-1-(2-(diethylamino)-2-oxoethyl)-1H-pyrazol-3-yl)amino)-N-(3-hydroxy-2,6-dimethylphenyl)thiazole-5-carboxamide] | 1000 to 11000 nM | X (100-<1000 fold) | Y (>20 fold) | 500 to 5000 nM | < 50 nM | < 100 nM |
| Cc1cn(CCF)nc1Nc1ncc(C(=O)Nc2c(C)ccc(O)c2Br)s1 [BAA-565, N-(2-bromo-3-hydroxy-6-methylphenyl)-2-((1-(2-fluoroethyl)-4-methyl-1H-pyrazol-3-yl)amino) thiazole-5-carboxamide] | 1000 to 11000 nM | X (100-<1000 fold) | Y (>20 fold) | > 5000 nM | < 50 nM | < 100 nM |
| Cc1ccc(O)c(C)c1NC(=O)c1cnc(Nc2n[nH]cc2Cl)s1 [BAA-566, 2-((4-chloro-1H-pyrazol-3-yl)amino)-N-(3-hydroxy-2,6-dimethylphenyl)thiazole-5-carboxamide] | 1000 to 11000 nM | X (100-<1000 fold) | Y (>20 fold) | > 5000 nM | < 50 nM | < 100 nM |
